Data set [1] is described as follows: Volume of distribution at steady state in C57BL/6 mouse at 1 mg/kg, iv and 2 mg/kg, po. The format is ADME, organism-based. To be noted: in vivo, read-out: Vdss.
Data set [2] deals with Streptococcus pneumoniae. As to the kind of experiment: Antibacterial activity against Streptococcus pneumoniae IID554. The format is functional. To be noted: Streptococcus pneumoniae, IID554; read-out: MIC.
In data set [3] the test system is Enterococcus faecalis. As to the kind of experiment: Antibacterial activity against Enterococcus faecalis ATCC 29212. The format is functional. Conditions: Enterococcus faecalis, ATCC 29212; read-out: MIC.
The subject of data set [4] is Staphylococcus aureus. Nature of the data set: Antibacterial activity against Staphylococcus aureus Smith infected in po dosed ICR mouse assessed as survival rate administered at 1 hr post infection measured over 7 days. The format is functional.
The test system of data set [5] is Pseudomonas aeruginosa. As to the kind of experiment: Antibacterial activity against Pseudomonas aeruginosa PAO1. The format is functional. Conditions: Pseudomonas aeruginosa, PAO1; read-out: MIC.
In data set [6] the test system is Staphylococcus aureus. As to the kind of experiment: Antibacterial activity against Staphylococcus aureus Smith infected in iv dosed CD1 mouse administered at 0.5 hrs post infection. The format is functional.
The nature of data set [7]: Half life in C57BL/6 mouse at 1 mg/kg, iv and 2 mg/kg, po. The format is ADME, organism-based. To be noted: in vivo.
The test system of data set [8] is Enterococcus faecium. Nature of the data set: Antibacterial activity against VanA-type vancomycin-resistant Enterococcus faecium A2373. The format is functional. To be noted: Enterococcus faecium, A2373; read-out: MIC.
Data set [9] relates to Staphylococcus aureus. Nature of the data set: Antibacterial activity against Staphylococcus aureus Smith. Conditions: Staphylococcus aureus, Smith; read-out: MIC. The format is functional.
A short description of data set [10]: Oral bioavailability in C57BL/6 mouse at 2 mg/kg. The format is ADME, organism-based. Conditions: in vivo.
Data set [11] has as its system Acinetobacter baumannii. Nature of the data set: Antibacterial activity against Acinetobacter baumannii IID876. To be noted: Acinetobacter baumannii, IID876; read-out: MIC. The format is functional.
Data set [12] deals with Mus musculus. Nature of the data set: Dose normalized AUC in C57BL/6 mouse at 1 mg/kg, iv and 2 mg/kg, po. The format is ADME, organism-based. Conditions: in vivo.
The test system of data set [13] is Escherichia coli. As to the kind of experiment: Antibacterial activity against Escherichia coli ATCC 25922. Conditions: Escherichia coli, ATCC 25922; read-out: MIC. The format is functional.
The nature of data set [14]: Plasma clearance in C57BL/6 mouse at 1 mg/kg, iv and 2 mg/kg, po. The format is ADME, organism-based.
The subject of data set [15] is Staphylococcus aureus. As to the kind of experiment: Antibacterial activity against Staphylococcus aureus Smith infected in iv dosed ICR mouse assessed as survival rate administered at 1 hr post infection measured over 7 days. The format is functional.

Values after ≈ are worked out from the molar mass of the structure shown.

Take `O=c1ccc2ncc(F)c3c2n1C[C@@]3(O)CC12CCC(NCc3cc4c(cn3)OCCO4)(CC1)CO2`: the Vd in [1] is 17 L/kg. The minimum inhibitory concentration (MIC) (in general, the lowest concentration that inhibits growth of the organism) in data set [2] stood at 2 µg/mL (≈ 4.04 µM); in [3], 8 µg/mL (≈ 16.2 µM); in data set [5], 16 µg/mL (≈ 32.4 µM); in data set [8], 16 µg/mL (≈ 32.4 µM); in data set [9], 0.5 µg/mL (≈ 1.01 µM); in data set [11], 8 µg/mL (≈ 16.2 µM). For the same compound, in [13], the minimal inhibitory concentration (MIC) came to 16 µg/mL (≈ 32.4 µM). Further, the results for the ED50 in data set [4] and in [15] were 5.1 mg/kg and 11 mg/kg, respectively. This compound also yielded an ED90 in data set [6] of 12 mg/kg. Moreover, the half-life (as a rule, the time in which the quantity being followed falls by half) in data set [7] is 2 h. Moreover, the bioavailability (usually dose-corrected exposure relative to a reference, in per cent) in data set [10] was 60%. The same compound had an AUC/dose in data set [12] of 0.5 µM·h/mg/kg. Besides, in [14], the clearance came to 47 mL/min/kg.

These data come from ChEMBL document CHEMBL3425423, “Hydroxy tricyclic 1,5-naphthyridinone oxabicyclooctane-linked novel bacterial topoisomerase inhibitors as broad-spectrum antibacterial agents-SAR of RHS moiety (Part-3)” (Bioorg Med Chem Lett, 2015).
